Data set [1] has as its system ADP-induced platelet aggregation. Put plainly: Inhibition of ADP-induced platelet aggregation in rats ex vivo (Born's method). Also noted: species or system rat. The note with it: for Platelet Aggregation (%): male Wistar rats, ADP 1.0 μM, mean ± SD n = 6; for antiplatelet effect (in words): rat ex vivo. Here is the method: Two hours after administration, rats were anesthetized using sodium pentobarbital and blood samples collected from the abdominal aorta for platelet aggregation tests using Born’s method. ADP (1.0 μM, Sigma-Aldrich, Co., St. Louis, MO, USA) was used as agonist for platelet aggregation. Platelet aggregation was measured using a coagulation analyzer (NJ4, Beijing Precil Instrument Company, Beijing, China).

The next data set deals with esterases. Conditions: cited from earlier work.
For data set [2] the following is noted: rat, 1000 ng/mL.
Protocol: Blood samples (100 μL) were collected every 10 min over 120 min, mixed with methanol (950 μL), water (50 μL) and an internal standard (IS) solution (diazepam, 100 μL, 100 ng/mL) and centrifuged at low temperature at 13,000 rpm. […] This was carried out using an Agilent 1100 Series HPLC system (degasser, pump, auto sampler, and column oven, Agilent Technologies, Santa Clara, CA, USA) coupled to an AB SCIEX Qtrap 2000 mass spectrometer (Applied Biosystems Sciex, Ottawa, ON, Canada) with an ESI source operated in the positive ion mode. Data acquisition and integration were performed by Analyst software (version 1.3.2, Applied Biosystems Sciex, Ottawa, ON, Canada). Chromatography was performed on a ZORBAX Extend-C18 column (150 mm × 4.6 mm i.d., 5 μm, Agilent Technologies, Santa Clara, CA, USA) maintained at 40 °C using methanol and 0.1% aqueous formic acid (20:80, v/v) as mobile phase delivered at a flow rate of 1.0 mL/min. The injection volume was 20 μL. A 50:50 split of the column eluent was made by means of a T-piece. The mass spectrometer was operated at unit resolution for Q1 and Q3 in the multiple reaction monitoring (MRM) mode with a dwell time of 200 ms per MRM channel. […] QC samples were prepared independently at concentrations of 3, 30, and 800 ng/mL in the same way. […]
The next data set has as its system CYP2C19. Conditions: cited from earlier work.
The conditions of data set [3]: rat; cited from earlier work.
Where [4] appears, read: ex vivo 2 h after oral dose 7.8 μmol/kg.

Each structure is given as a SMILES string. Entries after “also recorded” stand apart in the source; their conditions may differ. Marks after values point to notes of the source that are not given here.

The term melting point denotes the temperature, or range, at which the solid turns liquid.

In the case of `O=S(=O)(O)O.[2H]C([2H])([2H])OC(=O)[C@H](c1ccccc1Cl)N1CCc2sccc2C1` [Compound 8, Methyl-d3 (S)-2-(2-chlorophenyl)-2-(6,7-dihydrothieno[3,2-c]pyridin-5(4H)-yl)acetate bisulfate], the “Platelet Aggregation (%)” value in data set [1] (setting [4]) was determined as 36.6 ± 6.6%. Also, the “antiplatelet effect (in words)” value in data set [1] (oral dose 7.8 μmol/kg) was “potent inhibitors”.
On to `[2H]C([2H])([2H])OC(=O)[C@H](c1ccccc1Cl)N1CCC2SC(=O)C=C2C1` (stereo partly drawn) [Compound 9, Methyl-d3 (2S)-2-(2-chlorophenyl)-2-(2-oxo-2,6,7,7a-tetrahydrothieno[3,2-c]pyridin-5(4H)-yl)acetate], for which the “Platelet Aggregation (%)” value in data set [1] (setting [4]) is 21.2 ± 7.6%. Also, in data set [1] (oral dose 7.8 μmol/kg), the “antiplatelet effect (in words)” value is listed as “potent antiplatelet agent”.
`[2H]C([2H])([2H])OC(=O)[C@H](c1ccccc1Cl)N1CCc2sc(OC(C)=O)cc2C1` [Compound 10a, Methyl-d3 (S)-2-(2-acetoxy-6,7-dihydrothieno[3,2-c]pyridin-5(4H)-yl)-2-(2chlorophenyl)acetate]: in data set [1] (setting [4]), the “Platelet Aggregation (%)” value worked out at 17.3 ± 8.2%. Also, the “antiplatelet effect (in words)” value in data set [1] (oral dose 7.8 μmol/kg) was “potent inhibitors; also recorded: potent antiplatelet activity”.
For `Cl.[2H]C([2H])([2H])OC(=O)[C@H](c1ccccc1Cl)N1CCc2sc(OC(=O)CC)cc2C1` [Compound 10b, (S)-5-(1-(2-Chlorophenyl)-2-(methoxy-d3)-2-oxoethyl)-4,5,6,7-tetrahydrothieno[3,2-c]pyridin-2-yl propionate hydrochloride] the same measures were 24.9 ± 9.7% and “potent antiplatelet activity”.
As to `[2H]C([2H])([2H])OC(=O)[C@H](c1ccccc1Cl)N1CCc2sc(OC(=O)CCC)cc2C1` [Compound 10c, (S)-5-(1-(2-Chlorophenyl)-2-(methoxy-d3)-2-oxoethyl)-4,5,6,7-tetrahydrothieno[3,2-c]pyridin-2-yl butyrate], the “Platelet Aggregation (%)” value in data set [1] (setting [4]) turned out to be 29.9 ± 9.5%. Further, the “antiplatelet effect (in words)” value in data set [1] (oral dose 7.8 μmol/kg) is on record as “potent antiplatelet activity”.
Compound `Cl.[2H]C([2H])([2H])OC(=O)[C@H](c1ccccc1Cl)N1CCc2sc(OC(=O)C(C)C)cc2C1` [Compound 10d, (S)-5-(1-(2-Chlorophenyl)-2-(methoxy-d3)-2-oxoethyl)-4,5,6,7-tetrahydrothieno[3,2-c]pyridin-2-yl isobutyrate hydrochloride] showed a melting point of 146.7 to 149.9 °C. The “Platelet Aggregation (%)” value in data set [1] (setting [4]) is 36.3 ± 4.5%. In data set [1] (oral dose 7.8 μmol/kg), the “antiplatelet effect (in words)” value is “potent antiplatelet activity”.
Consider `[2H]C([2H])([2H])OC(=O)[C@H](c1ccccc1Cl)N1CCc2sc(OC(=O)C3CC3)cc2C1` [Compound 10e, (S)-5-(1-(2-Chlorophenyl)-2-(methoxy-d3)-2-oxoethyl)-4,5,6,7-tetrahydrothieno[3,2-c]pyridin-2-yl cyclopro-panecarboxylate], for which the “Platelet Aggregation (%)” value in data set [1] (setting [4]) turned out to be 24.6 ± 10.0%. In data set [1] (oral dose 7.8 μmol/kg), the “antiplatelet effect (in words)” value is given as “anomalously potent; also recorded: potent antiplatelet activity”.
Turning to `[2H]C([2H])([2H])OC(=O)[C@H](c1ccccc1Cl)N1CCc2sc(OC(=O)C(C)(C)C)cc2C1` [Compound 10f, (S)-5-(1-(2-Chlorophenyl)-2-(methoxy-d3)-2-oxoethyl)-4,5,6,7-tetrahydrothieno[3,2-c]pyridin-2-yl pivalate], the melting point lay in the range of 105.4 to 107.1 °C. Further, in data set [1] (setting [4]), the “Platelet Aggregation (%)” value was found to be 44.7 ± 4.1%.
In the case of `[2H]C([2H])([2H])OC(=O)[C@H](c1ccccc1Cl)N1CCc2sc(OC(=O)CCCCC)cc2C1` [Compound 10g, (S)-5-(1-(2-Chlorophenyl)-2-(methoxy-d3)-2-oxoethyl)-4,5,6,7-tetrahydrothieno[3,2-c]pyridin-2-yl hexanoate], the melting point fell in the range of 49.4 to 52.7 °C. In addition, in data set [1] (setting [4]), the “Platelet Aggregation (%)” value is 35.2 ± 7.7%. Besides, in data set [1] (oral dose 7.8 μmol/kg), the “antiplatelet effect (in words)” value is recorded as “potent antiplatelet activity”.
The compound `[2H]C([2H])([2H])OC(=O)[C@H](c1ccccc1Cl)N1CCc2sc(OC(=O)C(C)(C)CC)cc2C1` [Compound 10h, (S)-5-(1-(2-Chlorophenyl)-2-(methoxy-d3)-2-oxoethyl)-4,5,6,7-tetrahydrothieno[3,2-c]pyridin-2-yl 2,2-dimethylbutanoate] showed a melting point of 99.4 to 100.3 °C. For the same compound, in data set [1] (setting [4]), the “Platelet Aggregation (%)” value is given as 48.5 ± 6.7%.
In turn, `[2H]C([2H])([2H])OC(=O)[C@H](c1ccccc1Cl)N1CCc2sc(OC(=O)CCCCCCCCCCC)cc2C1` [Compound 10i, (S)-5-(1-(2-Chlorophenyl)-2-(methoxy-d3)-2-oxoethyl)-4,5,6,7-tetrahydrothieno[3,2-c]pyridin-2-yl laurate] had a melting point of 35.8 to 37.6 °C. The “Platelet Aggregation (%)” value in data set [1] (setting [4]) is 49.7 ± 4.0%.
As for `[2H]C([2H])([2H])OC(=O)[C@H](c1ccccc1Cl)N1CCc2sc(OC(=O)C=Cc3ccccc3)cc2C1` [Compound 10j, (S)-5-(1-(2-Chlorophenyl)-2-(methoxy-d3)-2-oxoethyl)-4,5,6,7-tetrahydrothieno[3,2-c]pyridin-2-yl cinnamate], the melting point is 121.7 to 123.1 °C. Besides, the “Platelet Aggregation (%)” value in data set [1] (setting [4]) is listed as 56.4 ± 6.9%.
As for `Cl.[2H]C([2H])([2H])OC(=O)[C@H](c1ccccc1Cl)N1CCc2sc(OC(=O)c3ccccc3)cc2C1` [Compound 10k, (S)-5-(1-(2-Chlorophenyl)-2-(methoxy-d3)-2-oxoethyl)-4,5,6,7-tetrahydrothieno[3,2-c]pyridin-2-yl benzoate hydrochloride], in data set [1] (setting [4]), the “Platelet Aggregation (%)” value was 43.6 ± 9.5%.
As to `[2H]C([2H])([2H])OC(=O)[C@H](c1ccccc1Cl)N1CCc2sc(OC(=O)c3ccccc3C(F)(F)F)cc2C1` [Compound 10l, (S)-5-(1-(2-Chlorophenyl)-2-(methoxy-d3)-2-oxoethyl)-4,5,6,7-tetrahydrothieno[3,2-c]pyridin-2-yl 2-(trifluoromethyl)benzoate], the “Platelet Aggregation (%)” value in data set [1] (setting [4]) is 49.2 ± 4.6%.
The compound `[2H]C([2H])([2H])OC(=O)[C@H](c1ccccc1Cl)N1CCc2sc(OC(=O)c3cccnc3)cc2C1` [Compound 10m, (S)-5-(1-(2-Chlorophenyl)-2-(methoxy-d3)-2-oxoethyl)-4,5,6,7-tetrahydrothieno[3,2-c]pyridin-2-yl nicotinate] yielded a melting point of 92.1 to 94.8 °C. In addition, in data set [1] (setting [4]), the “Platelet Aggregation (%)” value worked out at 37.4 ± 6.7%. The “antiplatelet effect (in words)” value in data set [1] (oral dose 7.8 μmol/kg) is “strong potency; also recorded: potent antiplatelet activity”.
Regarding `[2H]C([2H])([2H])OC(=O)[C@@H](c1ccccc1Cl)N1CCc2sc(OC(C)=O)cc2C1` [Compound R-10a, Methyl-d3 (R)-2-(2-acetoxy-6,7-dihydrothieno[3,2-c]pyridin-5(4H)-yl)-2-(2chlorophenyl)acetate], the “Platelet Aggregation (%)” value in data set [1] (setting [4]) was found to be 57.4 ± 5.0%. Also, the “antiplatelet effect (in words)” value in data set [1] (oral dose 7.8 μmol/kg) was “almost inactive”.
As for `COC(=O)[C@H](c1ccccc1Cl)N1CCc2sccc2C1` [clopidogrel, Clopidogrel], in the data set on esterases, the “proportion hydrolyzed by esterases to inactive clopidogrel acid” value is listed as 85% and the “proportion of an oral dose metabolized to inactive metabolites” value is “more than 90%”. Further, the “Platelet Aggregation (%)” value in data set [1] (setting [4]) is given as 59.8 ± 8.4%. In addition, the “Platelet Aggregation (%)” value in data set [1] (ex vivo 2 h after oral dose 78 μmol/kg (clopidogrel bisulfate, active control)) is on record as 15.8 ± 8.0 ^b %. Also, the “antiplatelet effect (in words)” value in data set [1] (oral dose 7.8 μmol/kg) was “low activity”. Besides, the “antiplatelet effect (in words)” value in data set [1] (oral dose 78 μmol/kg) was “strong inhibitory effect”. For the same compound, the “time after which concentration was below the limit of detection” value in data set [2] is on record as 70 min. In addition, in the data set with CYP2C19, the “contribution of CYP2C19 to the first step (to 2-oxoclopidogrel)” value is listed as 44.9% and the “contribution of CYP2C19 to the second step (2-oxoclopidogrel to AM)” value is given as 20.6%.
For the compound `COC(=O)[C@H](c1ccccc1Cl)N1CCc2sc(OC(C)=O)cc2C1` [vicagrel, reference compound], the “Platelet Aggregation (%)” value in data set [1] (setting [4]) came to 20.0 ± 9.1%. The “antiplatelet effect (in words)” value in data set [1] (oral dose 7.8 μmol/kg) is given as “potent inhibitors”. For the same compound, in data set [3], the “level of AM relative to clopidogrel” value is given as “four-fold”.

Source of the values: paper PMC6274316 (Molecules, 2016).
